Assay results published in ChEMBL document CHEMBL5725580, “Macrocyclic pyridazinone derivatives” (2018).

Key:
[1] = target: Interleukin-1 receptor-associated kinase 1 (Homo sapiens, UniProt P51617); test: IRAK1 Enzymatic Assay: IRAK1 is a human purified recombinant enzyme (His-TEV-IRAK1 (194-712)) In this assay, IRAK-1 hydrolyses ATP and autophosphorylates.Measurement of IRAK-1 inhibition is performed in streptavidin coated 384 well FlashPlate (PerkinElmer #SMP410A).His-TEV-IRAK-1 (15 ng/well), ATP (1 μM, [33P]ATP 0.25 μCi/well) and compounds in DMSO (range of concentrations from 20 μM to 1 nM) or controls (2% DMSO) are incubated for 3 hours at 30° C. in assay buffer: Hepes pH 7.0 50 mM, Fatty acid-free BSA 0.1%, Dithiothreitol DTT 2 mM, MgCl2 10 mM, EGTA 0.5 mM, Triton-X-100 0.01%. Kinase reaction is stopped by addition of EDTA. Supernatant is discarded, plates are washed three times with 150 mM NaCl and radioactivity is then measured in a Microbeta Trilux reader.
Chain of Interleukin-1 receptor-associated kinase 1 (P51617 whole entry): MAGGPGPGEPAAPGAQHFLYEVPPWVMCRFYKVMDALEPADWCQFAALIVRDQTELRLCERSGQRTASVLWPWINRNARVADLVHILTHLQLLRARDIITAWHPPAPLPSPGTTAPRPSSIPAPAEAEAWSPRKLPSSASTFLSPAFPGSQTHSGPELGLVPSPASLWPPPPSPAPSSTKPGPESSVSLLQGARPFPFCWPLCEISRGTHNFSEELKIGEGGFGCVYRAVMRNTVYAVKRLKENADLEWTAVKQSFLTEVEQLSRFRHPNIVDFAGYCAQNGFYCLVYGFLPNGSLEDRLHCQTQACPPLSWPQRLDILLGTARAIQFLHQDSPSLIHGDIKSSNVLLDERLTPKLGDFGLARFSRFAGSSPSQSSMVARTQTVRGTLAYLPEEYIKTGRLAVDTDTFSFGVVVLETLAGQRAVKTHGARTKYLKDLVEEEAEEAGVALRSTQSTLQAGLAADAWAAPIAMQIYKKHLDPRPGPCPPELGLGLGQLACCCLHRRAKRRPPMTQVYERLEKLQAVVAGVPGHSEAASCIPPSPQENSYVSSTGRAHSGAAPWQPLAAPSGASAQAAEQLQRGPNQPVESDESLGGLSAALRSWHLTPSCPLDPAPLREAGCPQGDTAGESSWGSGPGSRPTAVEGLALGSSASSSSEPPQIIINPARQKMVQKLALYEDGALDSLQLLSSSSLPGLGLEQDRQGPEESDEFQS

[2] = target: T1, Interleukin-1 receptor-associated kinase 4 (Homo sapiens, UniProt Q9NWZ3); test: IRAK4 Enzymatic Assay: IRAK4 is a human purified recombinant enzyme ([…] IRAK4 hydrolyses ATP, autophosphorylates and phosphorylates a Serine/Threonine generic peptidic substrate (STK: 61ST1BLC from CisBio International based in Bagnols/Cèze FR).Measurement of IRAK-4 inhibition is performed in streptavidin coated 384 well FlashPlate (PerkinElmer #SMP410A). His-TEV-IRAK4 (20 ng/well), ATP (2 μM, [33P]ATP 0.25 μCi/well), STK1-biotin peptide (300 nM) and compounds in DMSO (range of concentrations from 20 μM to 1 nM) or controls (2% DMSO) are incubated for 3 hours at 30° C. in assay buffer: Hepes pH 7.0 50 mM, Fatty acid-free BSA 0.1%, Dithiothreitol DTT 2 mM, MgCl2 10 mM, EGTA 0.5 mM, Tween-20 0.01%, MnCl2 5 mM.Kinase reaction is stopped by addition of EDTA. Supernatant is discarded, plates are washed three times with 150 mM NaCl and radioactivity is then measured in a Microbeta Trilux reader.
T1 sequence (Q9NWZ3 whole entry): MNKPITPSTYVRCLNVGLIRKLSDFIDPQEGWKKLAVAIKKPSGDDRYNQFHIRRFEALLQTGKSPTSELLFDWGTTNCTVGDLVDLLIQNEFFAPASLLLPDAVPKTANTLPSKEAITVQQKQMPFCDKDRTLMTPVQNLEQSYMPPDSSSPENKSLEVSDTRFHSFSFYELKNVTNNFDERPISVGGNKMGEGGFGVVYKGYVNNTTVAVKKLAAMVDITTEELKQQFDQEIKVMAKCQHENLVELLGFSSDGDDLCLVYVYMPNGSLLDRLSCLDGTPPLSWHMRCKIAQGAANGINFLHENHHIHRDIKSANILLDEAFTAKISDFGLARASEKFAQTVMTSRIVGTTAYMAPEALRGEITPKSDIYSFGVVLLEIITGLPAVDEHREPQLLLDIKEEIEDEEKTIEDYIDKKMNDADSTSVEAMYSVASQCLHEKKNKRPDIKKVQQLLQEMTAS

IC50 [1]: < 100 nM
IC50 [2]: < 100 nM
Structure (SMILES): O=C1Nc2nc3ccccc3n2CCn2cc(cn2)-c2ccc(=O)n(n2)Cc2cccc1c2
